pIC50: −log10 of the molar value.
Key:
[1] = Drug uptake in C57/BL6 mouse kidney at 30 mg/kg, po after 2 hrs; assay type: ADME, organism-based; parameters: dose 30 mg/kg, route oral; conditions: read-out: Drug uptake
Mus musculus [2] = assay: Inhibition of SCD activity in high sucrose/fat free diet fed C57/BL6 mouse liver assessed as reduction in conversion of [14C]stearic acid to [14C]oleic acid at 10 mg/kg, po; assay type: functional
Nucleic Acid [3] = assay: Ratio of drug uptake in high fat diet fed C57/BL6 mouse eDIO model whole blood to high sucrose/fat free diet fed C57/BL6 mouse plasma; assay type: ADME; conditions: in vivo
Acyl-CoA desaturase 1 [4] = target: T1, Acyl-CoA desaturase 1 (Rattus norvegicus, UniProt P07308); assay: Inhibition of SCD1 in Sprague-Dawley rat hepatocytes assessed as conversion of [14C]oleic acid formation by HPLC analysis; assay type: cell-based, Hepatocyte
T1 sequence (P07308 whole entry): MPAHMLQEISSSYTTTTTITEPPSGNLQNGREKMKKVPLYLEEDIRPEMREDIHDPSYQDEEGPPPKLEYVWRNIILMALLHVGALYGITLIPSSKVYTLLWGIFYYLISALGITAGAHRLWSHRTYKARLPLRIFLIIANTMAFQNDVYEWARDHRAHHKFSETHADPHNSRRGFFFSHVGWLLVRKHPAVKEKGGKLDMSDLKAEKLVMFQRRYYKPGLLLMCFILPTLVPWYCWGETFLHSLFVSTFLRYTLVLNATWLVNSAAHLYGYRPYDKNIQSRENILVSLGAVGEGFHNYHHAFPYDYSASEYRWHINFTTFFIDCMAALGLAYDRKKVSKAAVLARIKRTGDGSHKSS

[5] = Drug uptake in C57/BL6 mouse skin at 30 mg/kg, po after 24 hrs; assay type: ADME, organism-based, Zone of skin; parameters: dose 30 mg/kg, route oral; conditions: read-out: Drug uptake
[6] = AUC in C57/BL6 mouse plasma at 10 mg/kg, po and 2 mg/kg, iv; assay type: ADME, organism-based
[7] = target: T2, Stearoyl-CoA desaturase 5 (Homo sapiens, UniProt Q86SK9); assay: Inhibition of human SCD5
T2 sequence (Q86SK9 whole entry): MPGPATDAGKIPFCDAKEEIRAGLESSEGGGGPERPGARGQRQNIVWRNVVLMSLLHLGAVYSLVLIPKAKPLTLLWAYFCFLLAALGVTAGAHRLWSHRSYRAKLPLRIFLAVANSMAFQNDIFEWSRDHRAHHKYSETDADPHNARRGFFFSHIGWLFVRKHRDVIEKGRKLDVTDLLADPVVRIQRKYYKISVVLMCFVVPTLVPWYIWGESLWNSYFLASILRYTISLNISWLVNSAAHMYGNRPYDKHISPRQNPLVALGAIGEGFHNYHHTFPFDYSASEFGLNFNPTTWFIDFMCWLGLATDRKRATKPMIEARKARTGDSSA

[8] = Drug uptake in C57/BL6 mouse harderian glands at 30 mg/kg, po after 2 hrs; assay type: ADME, organism-based, Harderian gland; parameters: dose 30 mg/kg, route oral; conditions: read-out: Drug uptake
[9] = target: ATP-binding cassette sub-family C member 2 (Homo sapiens, UniProt Q92887); assay: Binding affinity to MRP2 expressed in MDCK2 cells coexpressing OATP1B1; assay type: cell-based; conditions: dog, mdck-ii
[10] = Drug uptake in high fat diet fed C57/BL6 mouse eDIO model whole blood at 100 mg/kg, po after 3 hrs; assay type: ADME, organism-based; parameters: dose 100 mg/kg, route oral; conditions: read-out: Drug uptake
[11] = Drug uptake in C57/BL6 mouse cerebellum at 30 mg/kg, po after 24 hrs; assay type: ADME, organism-based; parameters: dose 30 mg/kg, route oral; conditions: read-out: Drug uptake
[12] = Volume of distribution at steady state in Sprague-Dawley rat at 10 mg/kg, po and 2 mg/kg, iv; assay type: ADME, organism-based; conditions: in vivo, read-out: Vdss
HepG2 = assay: Selectivity ratio of IC50 for human SCD1 expressed in human HepG2 cells to IC50 for rat SCD1 in Sprague-Dawley rat hepatocytes; assay type: cell-based
[13] = Drug uptake in C57/BL6 mouse left epididymal fat at 30 mg/kg, po after 2 hrs; assay type: ADME, organism-based, Epididymal fat pad; parameters: dose 30 mg/kg, route oral; conditions: male, read-out: Drug uptake
Nucleic Acid [14] = assay: Ratio of drug uptake in left median liver lobe to harderian gland in C57/BL6 mouse at 30 mg/kg, po after 2 hrs; assay type: ADME, organism-based; parameters: dose 30 mg/kg, route oral; conditions: in vivo
[15] = Drug uptake in high fat diet fed C57/BL6 mouse eDIO model whole blood at 30 mg/kg, po after 3 hrs; assay type: ADME, organism-based; parameters: dose 30 mg/kg, route oral; conditions: read-out: Drug uptake
Acyl-CoA desaturase 1 [16] = target: T1, Acyl-CoA desaturase 1; assay: Inhibition of rat SCD1
Stearoyl-CoA desaturase [17] = target: T3, Stearoyl-CoA desaturase (Homo sapiens, UniProt O00767); assay: Inhibition of human SCD1
T3 sequence (O00767 whole entry): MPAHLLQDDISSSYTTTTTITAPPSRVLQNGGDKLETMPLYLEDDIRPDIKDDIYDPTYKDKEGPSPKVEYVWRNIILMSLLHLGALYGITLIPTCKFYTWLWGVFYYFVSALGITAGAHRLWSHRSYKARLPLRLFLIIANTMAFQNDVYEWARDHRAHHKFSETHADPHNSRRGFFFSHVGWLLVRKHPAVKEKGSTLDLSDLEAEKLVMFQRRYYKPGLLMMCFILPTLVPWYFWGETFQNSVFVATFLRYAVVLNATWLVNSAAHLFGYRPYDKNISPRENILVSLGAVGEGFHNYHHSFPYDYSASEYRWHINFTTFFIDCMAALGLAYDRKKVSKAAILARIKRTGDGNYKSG

[18] = Plasma concentration in high sucrose/fat free diet fed C57/BL6 mouse at 30 mg/kg, po after 3 hrs; assay type: ADME, organism-based; parameters: dose 30 mg/kg, route oral
[19] = Drug uptake in high sucrose/fat free diet fed C57/BL6 mouse liver at 30 mg/kg, po after 3 hrs; assay type: ADME, organism-based; parameters: dose 30 mg/kg, route oral; conditions: read-out: Drug uptake
[20] = Oral bioavailability in Sprague-Dawley rat plasma at 10 mg/kg; assay type: ADME, organism-based
Stearoyl-CoA desaturase [21] = target: T3, Stearoyl-CoA desaturase; assay: Inhibition of human SCD1 expressed in human HepG2 cells assessed as conversion of [14C]stearic acid to [14C]oleic acid; assay type: cell-based
[22] = Ratio of drug uptake in left median liver lobe to harderian gland in C57/BL6 mouse at 10 mg/kg, po after 6 hrs; assay type: ADME, organism-based; parameters: dose 10 mg/kg, route oral; conditions: in vivo
[23] = Plasma concentration in C57/BL6 mouse at 30 mg/kg, po after 2 hrs; assay type: ADME, organism-based; parameters: dose 30 mg/kg, route oral
Mus musculus [24] = assay: Acute antidiabetic activity in high fat diet fed po dosed C57/BL6 mouse eDIO model assessed as increase in glucose clearance administered 1 hr prior to glucose challenge by oGTT assay; assay type: functional, organism-based
[25] = Drug uptake in high sucrose/fat free diet fed C57/BL6 mouse liver at 10 mg/kg, po after 3 hrs; assay type: ADME, organism-based; parameters: dose 10 mg/kg, route oral; conditions: read-out: Drug uptake
Mus musculus [26] = assay: Inhibition of SCD activity in high sucrose/fat free diet fed C57/BL6 mouse liver assessed as reduction in conversion of [14C]stearic acid to [14C]oleic acid at 30 mg/kg, po; assay type: functional
Acyl-CoA desaturase 1 [27] = target: T4, Acyl-CoA desaturase 1 (Mus musculus, UniProt P13516); assay: Inhibition of mouse SCD1
T4 sequence (P13516 whole entry): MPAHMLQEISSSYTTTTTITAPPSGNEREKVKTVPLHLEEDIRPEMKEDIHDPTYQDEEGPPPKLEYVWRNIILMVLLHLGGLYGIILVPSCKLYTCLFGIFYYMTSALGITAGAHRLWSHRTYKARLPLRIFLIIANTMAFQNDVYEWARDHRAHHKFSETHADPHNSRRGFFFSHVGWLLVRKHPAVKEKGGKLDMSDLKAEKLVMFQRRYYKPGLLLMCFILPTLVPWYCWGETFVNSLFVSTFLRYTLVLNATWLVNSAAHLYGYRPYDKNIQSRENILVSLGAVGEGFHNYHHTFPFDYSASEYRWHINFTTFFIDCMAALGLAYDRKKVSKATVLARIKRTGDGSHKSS

Sequence of ATP-binding cassette sub-family C member 2 (Q92887 whole entry): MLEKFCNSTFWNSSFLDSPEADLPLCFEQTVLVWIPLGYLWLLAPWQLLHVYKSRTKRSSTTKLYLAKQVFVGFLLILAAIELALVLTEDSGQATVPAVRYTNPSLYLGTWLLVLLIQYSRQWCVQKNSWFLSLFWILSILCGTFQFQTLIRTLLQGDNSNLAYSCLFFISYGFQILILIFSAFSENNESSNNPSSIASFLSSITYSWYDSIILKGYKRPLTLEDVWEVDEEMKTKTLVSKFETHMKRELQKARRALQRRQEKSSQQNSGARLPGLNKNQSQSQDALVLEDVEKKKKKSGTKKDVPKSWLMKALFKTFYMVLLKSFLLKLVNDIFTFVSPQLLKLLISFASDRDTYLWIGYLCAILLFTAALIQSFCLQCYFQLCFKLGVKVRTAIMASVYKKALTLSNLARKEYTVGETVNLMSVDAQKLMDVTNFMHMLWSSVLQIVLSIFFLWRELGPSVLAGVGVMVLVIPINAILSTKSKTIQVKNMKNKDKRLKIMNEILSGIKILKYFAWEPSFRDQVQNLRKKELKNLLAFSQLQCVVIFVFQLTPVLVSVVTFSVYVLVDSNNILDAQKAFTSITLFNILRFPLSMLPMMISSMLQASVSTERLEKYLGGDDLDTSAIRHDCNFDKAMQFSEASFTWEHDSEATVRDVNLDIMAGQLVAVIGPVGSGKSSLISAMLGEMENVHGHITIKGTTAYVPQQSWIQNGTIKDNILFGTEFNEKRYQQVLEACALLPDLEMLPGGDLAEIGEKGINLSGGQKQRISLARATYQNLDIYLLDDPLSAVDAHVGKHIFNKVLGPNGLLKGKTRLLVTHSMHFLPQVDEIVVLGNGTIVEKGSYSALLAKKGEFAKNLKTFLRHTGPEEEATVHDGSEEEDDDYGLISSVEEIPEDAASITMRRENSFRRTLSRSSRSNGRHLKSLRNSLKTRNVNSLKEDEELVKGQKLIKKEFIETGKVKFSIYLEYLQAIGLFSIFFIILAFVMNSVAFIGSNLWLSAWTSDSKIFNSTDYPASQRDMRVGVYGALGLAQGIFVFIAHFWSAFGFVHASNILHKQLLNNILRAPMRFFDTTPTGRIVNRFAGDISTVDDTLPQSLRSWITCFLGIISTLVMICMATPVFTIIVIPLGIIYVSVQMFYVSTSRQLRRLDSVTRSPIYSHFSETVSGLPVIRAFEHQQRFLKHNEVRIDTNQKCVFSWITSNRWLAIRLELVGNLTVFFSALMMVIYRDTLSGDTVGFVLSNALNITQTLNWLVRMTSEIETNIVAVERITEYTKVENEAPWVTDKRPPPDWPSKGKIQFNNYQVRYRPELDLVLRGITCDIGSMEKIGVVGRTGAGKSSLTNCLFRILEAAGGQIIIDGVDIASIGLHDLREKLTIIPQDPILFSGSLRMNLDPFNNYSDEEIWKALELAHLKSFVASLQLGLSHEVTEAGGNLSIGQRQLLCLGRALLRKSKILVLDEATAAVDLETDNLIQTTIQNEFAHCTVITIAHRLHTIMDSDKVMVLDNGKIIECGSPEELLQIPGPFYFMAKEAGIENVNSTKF

SMILES: O=C(O)c1cncc(-c2ccc(N3CCC(Oc4cc(F)ccc4Br)CC3)nn2)c1
- concentration at 2 h [1]: 6140 nM
- inhibition in vivo at 10 mg/kg (Mus musculus [2]): 25%
- Ratio (Nucleic Acid [3]): < 2
- pIC50 (Acyl-CoA desaturase 1 [4]): 6.76
- concentration at 24 h [5]: 12 nM
- AUC [6]: 0.3 µM·h
- pIC50 [7]: 8.40
- concentration at 2 h [8]: 389 nM
- Activity [9]: Active
- concentration at 3 h [10]: 2240 nM
- concentration at 24 h [11]: 5 nM
- Vd [12]: 0.41 L/kg
- Ratio IC50 (HepG2): 34
- concentration at 2 h [13]: 106 nM
- Ratio (Nucleic Acid [14]): 11
- concentration at 3 h [15]: 320 nM
- pIC50 (Acyl-CoA desaturase 1 [16]): 7.82
- pIC50 (Stearoyl-CoA desaturase [17]): 8.15
- concentration at 3 h [18]: 450 nM
- concentration at 3 h [19]: 9290 nM
- bioavailability [20]: 43%
- pIC50 (Stearoyl-CoA desaturase [21]): 5.22
- Ratio [22]: 15
- concentration at 2 h [23]: 1210 nM
- Activity (Mus musculus [24]): Dose-dependent effect
- concentration at 3 h [25]: 2970 nM
- inhibition in vivo at 30 mg/kg (Mus musculus [26]): 74%
- pIC50 (Acyl-CoA desaturase 1 [27]): 8.05

From ChEMBL document CHEMBL1949499, “Nicotinic acids: liver-targeted SCD inhibitors with preclinical anti-diabetic efficacy” (Bioorg Med Chem Lett, 2011)
